Results reported in US20130053406A1, “THERAPEUTIC COMPOUNDS AND USES THEREOF” (Myrexis, Inc., priority 2009, published 2013).
pIC50: −log10 of the molar value.

Key:
[1] = test system: HCT116 cells; assay: Cytotoxicity assay (ATPLite, 72 hours); format: cell-based; details: Homo sapiens, HCT-116, ATPLite luminescence
Procedure: HCT116 cells are seeded into black 96-well plates at 5,000 cells per well in 100 microliters (DMEM supplemented with 10% serum) and are incubated overnight. […] Plates are equilibrated to room temperature (5 min). Fifty microliters lysis buffer followed by 50 microliters substrate solution (ATPLite [2 step], Perkin-Elmer, #601941) is added to each well, and plates are incubated at room temperature 5 minutes. Luminescence is then measured (TopCount, Perkin-Elmer).

[2] = target: purified human Hsp90; assay: Hsp90 binding assay (fluorescence polarization, displacement of BODIPY-geldanamycin); details: displacement of BODIPY-GM (10 nM) from purified human Hsp90 (30 nM), overnight at room temperature
Procedure: Plates are incubated overnight at room temperature. Parallel and perpendicular fluorescence measurements are read (LJL BioSystems Analyst AD plate reader) at excitation/emission wavelengths of 485/530 nm. Background fluorescence (buffer only) is subtracted, and fluorescence polarization (FP) values, expressed in mP units, are calculated from parallel and perpendicular fluorescence readings as follows:
Percent inhibition is calculated by normalizing the FP values to those obtained in parallel reactions containing DMSO and subtracting these normalized values from 100%. Intrinsic compound fluorescence is independently monitored, and FP data points confounded by compound fluorescence are excluded from the analysis.

| pIC50 [2] | SMILES | pIC50 [1] |
| --- | --- | --- |
| 7.11 | [2H]C1([2H])Oc2cc(Br)c(Sc3nc4c(N)ncnc4n3CCC3CCN(C(=O)[C@H](C)OC(C)=O)CC3)cc2O1 [(2S)-1-[4-(2-{6-amino-8-[(6-bromo-2,2-d2-benzo[d][1,3]dioxol-5-yl)sulfanyl]-9H-purin-9-yl}ethyl)piperidin-1-yl]-1-oxopropan-2-yl acetate] | 6.14 |
| 6.60 | [2H]C1([2H])Oc2cc(Br)c(Sc3nc4c(N)ncnc4n3CCC3CCN(C(=O)[C@H](C)O)CC3)cc2O1 [(2S)-1-[4-(2-{6-amino-8-[(6-bromo-2,2-d2-benzo[d][1,3]dioxol-5-yl)sulfanyl]-9H-purin-9-yl}ethyl)piperidin-1-yl]-2-hydroxypropan-1-one] | 5.92 |
